Data from patent US20100216788A1, “FUSED HETEROCYCLIC COMPOUND” (TAKEDA PHARMACEUTICAL COMPANY LIMITED, priority 2005, published 2010).
Where a name gives a salt, the structure may show the parent alone.

How the values were obtained:
[1] = target: T1, HER2 intracellular domain (Homo sapiens, UniProt P04626); experiment: Determination of HER2 kinase inhibitory activity; type: biochemical; conditions: test compound at 1.0 μM, poly-Glu:Tyr (4:1) substrate, [γ-32P]ATP, 25° C. 10 min; for inhibition at 1 µM: read-out: Inhibitory rate (%) at 1.0 μM
T1 construct: made in house; host or cells: SF-21 insect cells infected with recombinant baculovirus BAC-HER2 (pFASTBAC1)
T1 sequence (P04626 676-1255 limits assumed): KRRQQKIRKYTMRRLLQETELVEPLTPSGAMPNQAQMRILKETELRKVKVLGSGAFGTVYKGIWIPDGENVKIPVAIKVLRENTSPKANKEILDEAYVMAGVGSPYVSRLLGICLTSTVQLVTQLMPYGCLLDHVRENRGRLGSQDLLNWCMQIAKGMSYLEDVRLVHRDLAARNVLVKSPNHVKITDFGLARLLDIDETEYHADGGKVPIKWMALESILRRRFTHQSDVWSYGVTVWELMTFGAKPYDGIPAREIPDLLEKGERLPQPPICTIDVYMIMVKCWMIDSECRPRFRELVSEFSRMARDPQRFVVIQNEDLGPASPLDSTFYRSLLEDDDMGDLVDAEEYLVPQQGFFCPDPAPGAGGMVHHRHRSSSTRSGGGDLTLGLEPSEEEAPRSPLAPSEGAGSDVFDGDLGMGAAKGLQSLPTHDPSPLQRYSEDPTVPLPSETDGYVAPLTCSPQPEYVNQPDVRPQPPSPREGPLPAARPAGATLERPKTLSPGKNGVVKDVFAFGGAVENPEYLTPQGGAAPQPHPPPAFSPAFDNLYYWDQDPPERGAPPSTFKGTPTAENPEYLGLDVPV
Experimental: Human HER2 gene was cloned by RT-PCR using total RNA prepared from MCF7 cells as a template. The primer used for RT-PCR was prepared from nucleotide sequence (Genbank Accession No. M11730) information of HER2 gene by adding a nucleotide sequence encoding DYKDDDD peptide and a restriction enzyme recognition sequence to a nucleotide sequence (2176-3918 of Genbank Accession No. M11730) encoding the HER2 intracellular domain region, so that the protein contains an N-terminal DYKDDDD peptide tag. The primer nucleotide sequence is shown below.
The RT reaction was conducted using SuperScript First-Strand Synthesis System for RT-PCR (Invitrogen) and the PCR reaction was conducted using a KOD-plus kit (TOYOBO). The obtained PCR product was electrophoresed on agarose gel (1%), the DNA fragment amplified by PCR was recovered from the gel, and then digested with restriction enzymes Sal I and Sph I. The DNA treated with the restriction enzymes was electrophoresed on agarose gel (1%), and the obtained DNA fragment was recovered and ligated to plasmid pFASTBAC1 (Invitrogen) digested with restriction enzymes Sal I and Sph I to give expression plasmid pFB-HER2. The nucleotide sequence of the insertion fragment was confirmed and found to be identical with the nucleotide sequence (2176-3918 of Genbank Accession M11730) of HER2 intracellular domain. Furthermore, using BAC-TO-BAC Baculovirus Expression System (Invitrogen), recombinant baculovirus BAC-HER2 was prepared.
SF-21 cells were sown at 1×10^6 cells/mL to Sf-900II SFM medium (1 L, Invitrogen) containing 10% fetal bovine serum (trace), 50 mg/L gentamicin (Invitrogen) and 0.1% Pluronic F-68 (Invitrogen), and shaking culture was performed using a 2 L volume Erlenmeyer flask at 27° C., 100 rpm. After culturing for 24 hr, recombinant baculovirus BAC-HER2 (13.4 mL) was added, and the mixture was further cultured for 3 days. The culture medium was centrifuged at 2,000 rpm for 5 min. to give virus-infected cells. The infected cells were washed with a phosphate buffered saline (Invitrogen), centrifuged under the same conditions, and the cells were preserved at −80° C. The cryopreserved cells were thawed in ice, suspended in buffer A (50 mM Tris buffer (30 mL, pH 7.4) containing 20% glycerol, 0.15 M NaCl) supplemented with Complete Protease Inhibitor (Boehringer), and ruptured 3 times with a Polytron homogenizer (Kinematica) at 20,000 rpm for 30 sec. The rupture medium was clarified by centrifugation at 40,000 rpm for 30 min. and filtered with a 0.45 μm filter. The filtrate was passed through a column packed with Anti-FLAG M2 Affinity Gel (4 mL, Sigma) at a flow rate of about 0.5 mL/min. The column was washed with buffer A, and eluted with buffer A containing 100 μg/mL of FLAG peptide. The eluate was concentrated with Vivaspin 20 (Vivascience) having a molecular weight cut off of 30K. The concentrate was purified by gel filtration using Hi Load Superdex 200pg 16/60 (Amersham Bioscience) equilibrated with buffer A. The fractions containing HER2 intracellular domain were collected, glycerol was added to the final concentration of 50% and cryopreserved at −80° C.
A test compound dissolved in dimethyl sulfoxide (DMSO) was diluted with a buffer for kinase reaction (50 mM Tris-HCl (pH7.5), 5 mM MgCl2, 5 mM MnCl2, 2 mM dithiothreitol, 0.01% Tween-20). To this compound solution (10 μL) was added a buffer for kinase reaction (20 μL) containing 5 μg/mL of HER2 intracellular domain obtained in Experimental Example 1B and 12.5 μg/mL of polypeptide substrate poly-Glu:Tyr (4:1) (Sigma). To the obtained mixture was added 20 μL of ATP solution (1.25 μM ATP, 0.05 μCi [γ-^32P]ATP), the mixture was allowed to react at 25° C. for 10 min. and the reaction was quenched with 50 μL of 20% TCA solution. The reaction solution was allowed to stand at 4° C. for 20 min., and the acid insoluble fraction was transferred to GF/C filter (PerkinElmer) using cell harvester (PerkinElmer) and washed with 250 mM phosphoric acid solution. […]

[2] = test system: human breast cancer cell BT-474; experiment: Inhibitory action on breast cancer cell BT-474 proliferation in vitro; type: cell-based; conditions: 120 h, BT-474 cells, cultured 5 days with compound, SRB staining of cell protein
Experimental: A suspension of human breast cancer cell. BT-474 (100 μl (6,000 cells)) were seeded to attach in a 96-well microplate and cultured in an incubator (37° C., 5% carbon dioxide). On the following day, 100 μl of a solution of each test compound previously diluted serially in 2-fold, was added to give indicated dose, and the cells were cultured for 5 days. After the culture medium containing the test compound was removed, the cells were washed and fixed with 50% trichloroacetic acid, after which a 0.4% (w/v) SRB solution (dissolved in 1% acetic acid) was added to stain the cell protein (Skehan et al., Journal of the National Cancer Institute, Vol. 82, pp. 1107-1112, 1990). After washing with a 1% acetic acid solution, 100 μl of Tris solution (10 mM) was added to extract the pigment and the absorbance was measured at a wavelength of 550 nm to quantify the amount of cells as protein content. Taking as 100% the protein content for the control group, which received no test compound solution, the ratio of the residual protein content for, each treatment group was determined, and the compound concentration required to achieve 50% suppression of the residual cell content relative to the control (IC50 value) was calculated.

Structure (SMILES) | Inhibitory rate (%) at 1.0 μM [1] [%] | inhibition at 1 µM [1] [%] | IC50 [2] [µM]
CC(C)(C(=O)NCCn1ccc2ncnc(Nc3ccc(Oc4cccc(Cl)c4)c(Cl)c3)c21)S(C)(=O)=O.Cc1ccc(S(=O)(=O)O)cc1 [Example A-15, N-[2-(4-{[3-chloro-4-(3-chlorophenoxy)phenyl]amino}-5H-pyrrolo[3,2-d]pyrimidin-5-yl)ethyl]-2-methyl-2-(methylsulfonyl)propanamide p-toluenesulfonate] | 99 | – | –
CC(C)(C(=O)NCCn1ccc2ncnc(Nc3ccc(Oc4cccc(Cl)c4)c(Cl)c3)c21)S(C)(=O)=O [Example A-1, N-[2-(4-{[3-chloro-4-(3-chlorophenoxy)phenyl]amino}-5H-pyrrolo[3,2-d]pyrimidin-5-yl)ethyl]-2-methyl-2-(methylsulfonyl)propanamide] | – | 98 | < 0.1
O=C(Nc1cccc(Oc2ccc(Nc3ncnc4ccn(CCOCCO)c34)cc2Cl)c1)C1CC1 [Example C-45, N-{3-[2-chloro-4-({5-[2-(2-hydroxyethoxy)ethyl]-5H-pyrrolo[3,2-d]pyrimidin-4-yl}amino)phenoxy]phenyl}cyclopropanecarboxamide] | – | 97 | < 0.1
CC(C)(O)CC(=O)NCCn1ccc2ncnc(Nc3ccc4c(cnn4Cc4cccc(F)c4)c3)c21 [Example G-5, N-[2-(4-{[1-(3-fluorobenzyl)-1H-indazol-5-yl]amino}-5H-pyrrolo[3,2-d]pyrimidin-5-yl)ethyl]-3-hydroxy-3-methylbutanamide] | – | 93 | < 0.1
CS(=O)(=O)CC(=O)NCCn1ccc2ncnc(Nc3ccc(Oc4cccc(OCC5CC5)c4)c(Cl)c3)c21 [Example C-97, N-{2-[4-({3-chloro-4-[3-(cyclopropylmethoxy)phenoxy]phenyl}amino)-5H-pyrrolo[3,2-d]pyrimidin-5-yl]ethyl}-2-(methylsulfonyl)acetamide hydrochloride] | – | – | < 0.1
OCCOCCn1ccc2ncnc(Nc3cnc(Oc4cccc(C(F)(F)F)c4)c(Cl)c3)c21 [Example B-1, 2-{2-[4-({5-chloro-6-[3-(trifluoromethyl)phenoxy]pyridin-3-yl}amino)-5H-pyrrolo[3,2-d]pyrimidin-5-yl]ethoxy}ethanol] | – | 99 | –
CC(C)(C)NC(=O)c1cccc(Oc2ccc(Nc3ncnc4ccn(CCO)c34)cc2Cl)c1 [Example C-26, N-(tert-butyl)-3-(2-chloro-4-{[5-(2-hydroxyethyl)-5H-pyrrolo[3,2-d]pyrimidin-4-yl]amino}phenoxy)benzamide] | – | 98 | –
CC(C)(C)NC(=O)c1cccc(Cn2ncc3cc(Nc4ncnc5ccn(CCO)c45)ccc32)c1 [Example G-14, N-(tert-butyl)-3-[(5-{[5-(2-hydroxyethyl)-5H-pyrrolo[3,2-d]pyrimidin-4-yl]amino}-1H-indazol-1-yl)methyl]benzamide] | – | 100 | –
CC(C)(C)NC(=O)Cc1cccc(Oc2ccc(Nc3ncnc4ccn(CCO)c34)cc2Cl)c1 [Example C-89, N-(tert-butyl)-2-[3-(2-chloro-4-{[5-(2-hydroxyethyl)-5H-pyrrolo[3,2-d]pyrimidin-4-yl]amino}phenoxy)phenyl]acetamide] | – | 100 | –
CC(C)(C)CC(=O)c1cccc(Oc2ccc(Nc3ncnc4ccn(CCO)c34)cc2Cl)c1 [Example E-22, 1-[3-(2-chloro-4-{[5-(2-hydroxyethyl)-5H-pyrrolo[3,2-d]pyrimidin-4-yl]amino}phenoxy)phenyl]-3,3-dimethylbutan-1-one] | – | 99 | –
Cc1cc(Nc2ncnc3ccn(CCNC(=O)CS(C)(=O)=O)c23)ccc1Oc1cccc(OCC(F)(F)F)c1 [Example C-116, 2-(methylsulfonyl)-N-{2-[4-({3-methyl-4-[3-(2,2,2-trifluoroethoxy)phenoxy]phenyl}amino)-5H-pyrrolo[3,2-d]pyrimidin-5-yl]ethyl}acetamide hydrochloride] | – | – | < 0.1
